{"source": "patent US12102633B2", "about": "“Spirolactone compounds” (Quixgen, Inc., priority 2017, dated 2024)", "key": {"human ACC1": {"target": "T1, human ACC1 (Homo sapiens, UniProt Q13085)", "T1 construct": "purchased BPS Bioscience", "assay": "Human ACC enzymatic activity assay (ACC1)", "assay_type": "biochemical", "details": "purified human ACC1; read-out: EA-CoA hACC 1 IC50", "method": "(§1) Human ACC enzymatic activity assays were performed by using purified human ACC1 and ACC2 proteins (BPS Bioscience). ACC1 and ACC2 proteins were diluted in 24.5 μL reaction buffer (50 mM HEPES pH 7.5, 10 mM MgCl2, 2.0 mM DTT, 4.0 mM ATP, 15 mM ^13C-NaHCO3, 0.75 mg/mL BSA, 0.5 mM sodium citrate), and final concentrations of ACC1 and ACC2 were 0.4 μg/mL and 0.48 μg/mL. For each reaction, 0.5 μL of serial diluted compounds were prepared in DMSO in duplicate or triplicate and mixed with the above 24.5 μL reaction mixtures with ACC proteins at 37° C. for 10 min. Meanwhile, 25 μL of reaction buffer plus acetyl-CoA (final concentration: 5 μM) was prepared freshly and added to the above 25 μL mixture to initiate the reaction. After incubation at 37° C. for 1-2 hours, 100 μl ice-cold 10% TCA with malonyl-^13C3-CoA (final concentration: 40 nM, Sigma-Aldrich) was added to terminate the reaction. For LC-MS/MS analysis, 300 μL quenching buffer (acetonitrile:methanol=1:1, 20 μM carbutamide as internal standard) was added to each tube and mixed well. Samples were then centrifuged at 14,000 rpm for 10 min (Eppendorf) and supernatants were loaded onto LC-MS/MS for quantitation of […] (Gao et al., Journal of chromatography B, Analytical technologies in the biomedical and life sciences 853, 303-313 (2007)).\n(§2) Shimadzu LC system was used for sample analysis consisting of system controller (Shimadzu CBM-20A), autosampler (Shimadzu SIL-20A), pump A and B (Shimadzu LC-20AD), column oven (Shimadzu CTO-20A), and analytical column (Phenomenex Gemini 5u C18 11A, 100×2 mm). LC was running at 200 μL/min in the binary gradient mode with mobile phase A (5 mM Ammonium Acetate and 5 mM DMBA in water (1,3-Dimethylbutylamine)) and B (methanol). The samples were analyzed on an AB Sciex QTrap4000 LC-MS/MS triple quadrupole mass spectrometer (Applied Biosystems). Malonyl-CoA and malonyl-13C-CoA were monitored in positive ion mode following MRM transitions at 854.2/347.1 and 855.1/246.1, respectively. The product and internal standard were coeluted to the mass spectrometer in 3 s with 50% H2O, 25% MeCN, 25% acetone, and 5 mM ammonium acetate. Ion chromatograms were integrated using the Analyst 1.5.2 software. Peak area ratios were compared against a standard curve and final cellular concentration of malonyl-CoA or production rate of malonyl-13C-CoA was calculated as pmoles/mg protein per minute."}, "[1]": {"system": "liver triglycerides (TG) in C57BL/6J mice", "assay": "Chronic treatment for reducing liver triglycerides in C57BL/6J mice", "assay_type": "in vivo, mouse", "details": "male C57BL/6J mice; 20 mg per kilogram body weight in 0.5% methylcellulose, oral gavage once per day for 2 weeks; FIG. 1, vs vehicle", "method": "Male C57BL/6J mice (Jackson Laboratory) at around 9 weeks of age were treated with vehicle (0.5% methylcellulose or PEG400) or Example 14 (30 mg per kilogram body weight, dosing solution prepared in PEG400) and Example 20 (20 mg per kilogram body weight, dosing solution prepared in 0.5% methylcellulose) by oral gavage at ˜9:00 am, once per day for 2 weeks. Concentrations of Example 14 and Example 20 were 15 mg/ml and 2 mg/ml, respectively. The dosing volumes of Example 14 and Example 20 were 2 ml per kilogram body weight and 10 ml per kilogram body weight, respectively. After 14-day treatment, animals were euthanized in CO2 at 2 hours post dose and liver was frozen and kept on dry ice. Liver TG was measured by extracting lipids with chloroform:methanol 2:1 (v/v) followed by quantitation with Infinity™ Triglycerides Reagent (Thermo Scientific)."}, "human ACC2": {"target": "T2, human ACC2 (Homo sapiens, UniProt O00763)", "T2 construct": "purchased BPS Bioscience", "T2 sequence (O00763 whole entry)": "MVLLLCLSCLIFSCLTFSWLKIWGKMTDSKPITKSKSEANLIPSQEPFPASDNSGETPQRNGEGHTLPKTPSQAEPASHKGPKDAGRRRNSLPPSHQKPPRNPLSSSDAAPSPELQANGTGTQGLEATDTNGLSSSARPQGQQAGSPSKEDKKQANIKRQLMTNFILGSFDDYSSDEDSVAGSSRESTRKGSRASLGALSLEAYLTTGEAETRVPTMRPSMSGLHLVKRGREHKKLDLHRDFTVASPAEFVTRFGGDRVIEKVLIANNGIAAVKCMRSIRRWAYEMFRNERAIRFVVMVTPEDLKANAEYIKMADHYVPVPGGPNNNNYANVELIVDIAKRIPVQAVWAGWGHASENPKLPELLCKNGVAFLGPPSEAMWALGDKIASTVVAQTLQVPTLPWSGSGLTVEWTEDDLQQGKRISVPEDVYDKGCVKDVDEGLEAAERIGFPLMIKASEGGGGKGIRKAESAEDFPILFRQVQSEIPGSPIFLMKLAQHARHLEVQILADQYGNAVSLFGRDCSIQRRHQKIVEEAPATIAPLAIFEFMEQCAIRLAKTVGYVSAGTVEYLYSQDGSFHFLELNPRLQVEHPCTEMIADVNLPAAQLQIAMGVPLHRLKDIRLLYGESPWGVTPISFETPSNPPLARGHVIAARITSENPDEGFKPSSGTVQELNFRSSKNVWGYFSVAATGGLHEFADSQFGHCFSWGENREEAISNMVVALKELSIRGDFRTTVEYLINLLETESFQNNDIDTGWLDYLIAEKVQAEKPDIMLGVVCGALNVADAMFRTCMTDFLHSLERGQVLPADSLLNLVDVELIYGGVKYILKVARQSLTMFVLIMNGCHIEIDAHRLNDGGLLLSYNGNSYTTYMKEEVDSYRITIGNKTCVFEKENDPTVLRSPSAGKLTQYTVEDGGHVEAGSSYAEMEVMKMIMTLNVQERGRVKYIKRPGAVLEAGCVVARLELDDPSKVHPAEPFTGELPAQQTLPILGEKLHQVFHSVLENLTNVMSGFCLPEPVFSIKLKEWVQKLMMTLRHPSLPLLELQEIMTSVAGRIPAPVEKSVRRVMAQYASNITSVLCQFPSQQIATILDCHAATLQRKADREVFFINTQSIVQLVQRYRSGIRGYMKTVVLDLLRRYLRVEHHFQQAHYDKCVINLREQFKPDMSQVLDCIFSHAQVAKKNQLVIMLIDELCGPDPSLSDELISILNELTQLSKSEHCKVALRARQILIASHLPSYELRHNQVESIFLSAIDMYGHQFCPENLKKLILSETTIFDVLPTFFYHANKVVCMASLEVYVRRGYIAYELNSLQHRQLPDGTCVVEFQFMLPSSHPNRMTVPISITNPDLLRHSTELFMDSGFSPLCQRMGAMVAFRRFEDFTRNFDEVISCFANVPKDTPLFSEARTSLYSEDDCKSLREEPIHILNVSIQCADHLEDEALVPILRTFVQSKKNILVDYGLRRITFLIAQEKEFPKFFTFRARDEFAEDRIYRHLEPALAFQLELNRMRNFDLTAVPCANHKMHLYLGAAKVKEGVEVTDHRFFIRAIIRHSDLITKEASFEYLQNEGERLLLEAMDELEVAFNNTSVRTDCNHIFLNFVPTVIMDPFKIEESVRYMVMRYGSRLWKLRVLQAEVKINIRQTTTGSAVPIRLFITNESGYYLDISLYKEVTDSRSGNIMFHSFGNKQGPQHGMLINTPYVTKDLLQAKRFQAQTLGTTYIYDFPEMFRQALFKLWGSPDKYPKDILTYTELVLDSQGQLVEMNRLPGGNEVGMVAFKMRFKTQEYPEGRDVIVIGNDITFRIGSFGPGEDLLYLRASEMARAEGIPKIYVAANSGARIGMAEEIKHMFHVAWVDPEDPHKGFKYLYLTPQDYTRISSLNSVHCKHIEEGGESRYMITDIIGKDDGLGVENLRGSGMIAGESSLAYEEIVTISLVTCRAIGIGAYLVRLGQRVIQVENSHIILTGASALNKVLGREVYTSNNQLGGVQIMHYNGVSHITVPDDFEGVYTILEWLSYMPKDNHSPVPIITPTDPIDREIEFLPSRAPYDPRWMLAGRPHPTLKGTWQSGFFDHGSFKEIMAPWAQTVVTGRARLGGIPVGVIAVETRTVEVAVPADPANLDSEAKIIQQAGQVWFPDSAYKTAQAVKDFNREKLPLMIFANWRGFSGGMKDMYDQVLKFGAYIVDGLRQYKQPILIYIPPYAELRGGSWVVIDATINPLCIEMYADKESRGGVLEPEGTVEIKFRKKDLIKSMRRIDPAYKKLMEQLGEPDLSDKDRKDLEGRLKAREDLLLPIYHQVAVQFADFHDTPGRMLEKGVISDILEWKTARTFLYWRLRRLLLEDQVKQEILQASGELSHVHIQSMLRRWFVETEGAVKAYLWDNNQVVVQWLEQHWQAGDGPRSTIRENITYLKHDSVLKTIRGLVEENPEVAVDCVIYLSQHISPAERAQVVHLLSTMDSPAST", "assay": "Human ACC enzymatic activity assay (ACC2)", "assay_type": "biochemical", "details": "purified human ACC2; read-out: EA-CoA hACC 2 IC50", "method": "as §1, §2"}, "Human sebocytes [2]": {"system": "Human sebocytes", "assay": "Cellular levels of malonyl-CoA in human sebocytes", "assay_type": "cell-based", "details": "0.5 h, 30 min incubation, read-out: Malonyl-CoA in Sebo IC50", "method": "as §2\nHuman sebocytes (Celprogen) were grown in growth media (DMEM with 4.5 g/L glucose, 0.584 g/L L-glutamine (Sigma), 100 units/mL of penicillin and 100 μg/mL of streptomycin (Gibco), 10% fetal bovine serum (Gibco)) at 37° C. in a humidified water jacketed incubator (Forma Scientific) supplemented with 5% CO2 till 100% confluency. Cells grown in 152 cm^2 cell culture dish (Corning) were trypsinized with 0.25% trypsin-EDTA (Gibco), centrifuged at 800 rpm for 10 min (Eppendorf) and resuspended in 4 mL growth media. To 1 μL serial diluted compounds in DMSO, 99 μL cells (around 0.5 million cells suspended in growth media) were added and mixed well followed by incubation in cell culture incubator for 30 min. Cells were then centrifuged at 800 rpm for 10 min and 70 μL 10% trichloroacetic acid was added to each well to lyse the cells and precipitate proteins. Cellular levels of malonyl-CoA were quantitated by LC-MS/MS."}, "Human sebocytes [3]": {"system": "Human sebocytes", "assay": "Proliferation of human sebocytes", "assay_type": "cell-based", "details": "24 hours, MTT, read-out: AP-Sebo IC50", "method": "Human sebocytes (Celprogen) and keratinocytes (ATCC) were grown in 96-well culture microplate (Coming) with growth media to around 50% confluency. Media was changed to growth media mixed with serially diluted compounds in DMSO (1:1000 dilution). After treatment for 24 hours, media was changed to 100 μL phenol red free DMEM and cell numbers were quantitated by using Vybrant® MTT Cell Proliferation Assay Kit (Molecular Probes). Ten μL of 12 mM MTT stock solution was added to each well and the microplate was incubated at 37° C. for 4 hours. Then 100 μL of the SDS-HCl solution was added to each well and mixed thoroughly using a pipette. The microplate was incubated at 37° C. for 4 hours in a cell culture incubator. The microplate was mixed again using a pipette and absorbance was read at 570 nm (Dynex MRX^e Magellan Biosciences). Effect of compounds on proliferation of human keratinocytes was calculated by % of DMSO vehicle control."}, "Human sebocytes [4]": {"system": "Human sebocytes", "assay": "Lipogenesis of human sebocytes", "assay_type": "cell-based", "details": "96 hours, nile red, read-out: LG-Sebo IC50", "method": "Human sebocytes (Celprogen) were grown in collagen-coated 96-well culture microplate (White/Clear bottom, Coming BioCoat) with growth media till 100% confluency. Culture media was changed to growth media plus 100 μM arachidonic acid (Sigma) and 10 μM rosiglitazone (Tocris) with compounds prepared in DMSO (1:1000 dilution in growth media). Cells were treated with compounds for 96 hours with media containing compounds changed after 48 hours. Upon completion of treatment, cells were washed with 200 μL Phosphate Buffered Saline (PBS) and then fixed by adding 100 μL 4% formaldehyde (Sigma) and incubated at room temperature for 1 hour. Cells were then washed 3 times with PBS. Microplate was stained with 100 μL nile red solution prepared in PBS (2 mg/mL, 1:400 dilution) by incubating at 37° C. for 1 hour and then washed 3 times with PBS. The fluorescence was read at Ex 492 nm and Em 595 nm (TECAN SpectrofluorPlus). Effect of compounds on lipogenesis in sebocytes was calculated by % of DMSO vehicle control."}, "[5]": {"system": "T3, Mouse ACC (ACC protein purified from liver)", "T3 construct": "ACC protein was purified by taking advantage of the biotinylation in the carboxylase domain", "assay": "Mouse ACC enzymatic activity assay", "assay_type": "biochemical", "details": "read-out: EA-CoA mACC IC50", "method": "ACC protein was purified by taking advantage of the biotinylation in the carboxylase domain. Male C57BL/6J mice (Jackson Laboratory) at 8-12 weeks of age were euthanized by using CO2 inhalation method and liver was immediately frozen on dry ice. To 100 mg liver was added 1 mL ice-cold tissue lysis buffer (20 mM Tris-HCl pH 7.5, 150 mM NaCl, 1 mM Na2EDTA, 1 mM EGTA, 1% Triton, 2.5 mM sodium pyrophosphate, 1 mM 3-glycerophosphate, 1 mM Na3VO4, 1 μg/mL leupeptin, 1 tablet of protease inhibitor cocktail (Roche) per 10 mL lysis buffer) followed by homogenization on ice with Power Gen 125 homogenizer (Fisher Scientific). After 30 min incubation on ice, tissue lysate was passed through a 10 mL syringe with 18½ G needle for 10 times to shear DNA. The lysate was then subject to 17.5%-35% saturated ammonium sulfate precipitation by adding 880 mg ammonium sulfate powder (Sigma) to 10 mL liver lysate in 10 min with stirring on ice. Sample was centrifuged at 14,000 rpm (Eppendorf) at 4° C. for 10 min and supernatant was saved for further precipitation by adding 880 mg ammonium sulfate powder to 10 ml supernatant in 10 min with stirring on ice. Sample was centrifuged at 14,000 rpm at 4° C. for 10 min. Supernatant was discarded and pellet was dissolved in 10 mL sample buffer (100 mM Tris-HCl, pH 7.5, 1 mM EDTA, 0.1 mM DTT, 0.5 M NaCl, and 5% glycerol). The sample was then added with 1 mL of Strep Mag beads slurry (Genscript) and rotated at 4° C. for 1 hour. Supernatant was discarded and beads were washed with sample buffer for 3 times. Protein was then eluted by adding 10 mL of 2 mM biotin (Promega) prepared in sample buffer. The eluate was then dialyzed at 4° C. for 1 hour by using Slide-A-Lyzer™ Dialysis Cassettes 10K MWCO (Thermo Fisher Scientific) against 3 changes of 200 mL dialysis buffer (50 mM HEPES, pH 7.5, 0.1 mM DTT, 1.0 mM EDTA, and 10% glycerol). Total protein concentration was then quantitated by using BCA protein assay kit (Pierce).\nFor ACC enzymatic activity assay, 1 μL serial diluted compounds prepared in DMSO in duplicate were mixed with 8 μL dialyzed sample at 37° C. for 10 min. Ninety one L of reaction buffer (50 mM HEPES pH 7.5, 10 mM MgCl2, 2.0 mM DTT, 0.5 mM acetyl-CoA, 4.0 mM ATP, 15 mM ^13C-NaHCO3, 0.75 mg/mL BSA, 0.5 mM sodium citrate) was added to the tube and mixed thoroughly. After incubation at 37° C. for 1 hour, 300 μl ice-cold quenching buffer (acetonitrile:methanol=1:1, 20 μM carbutamide as internal standard) was added to each tube and mixed well to terminate the reaction. Samples were centrifuged at 14,000 rpm for 10 min (Eppendorf) and supernatant was loaded onto LC-MS/MS for quantitation of malonyl-^13C-CoA (Gao et al., Journal of chromatography B, Analytical technologies in the biomedical and life sciences 853, 303-313 (2007)).\nas §2"}, "3T3-L1 adipocytes": {"system": "3T3-L1 adipocytes", "assay": "Lipogenesis of 3T3-L1 adipocytes", "assay_type": "cell-based", "details": "Mus musculus, TG readout, read-out: LG-3T3 IC50", "method": "3T3-L1 fibroblast cells (Zen-Bio) were grown in 96-well culture microplate (Corning) with growth media to around 90-100% confluency. Culture media was changed to differentiation media (growth media supplemented with 3-Isobutyl-1-Methylxanthine 500 μM, Dexamethasone 1 μM, insulin 10 μg/mL, and rosiglitazone 2 μM) plus serially diluted compounds prepared in DMSO (1:1000 dilution). After incubation for 2 days, media was changed to maintenance media (growth media supplemented with insulin 10 μg/mL) plus serially diluted compounds prepared in DMSO (1:1000 dilution) for around 1 week with media changed every 2 days. Upon completion of the treatment, culture media are discarded and 200 μL 0.01% SDS was added to each well and shaken for 1 hour to lyse the cells. Cell lysates were then transferred to 400 μL Folch's solution (chloroform: methanol=2:1) and mixed well. After centrifuge at 2,000 rpm for 20 min, 200 μL of the lower organic phase was transferred to a plate with 10 μL sample buffer (chloroform:Triton-100=3:1). Samples were blown dried under nitrogen and 200 μL triglyceride (TG) quantification reagent (Thermo Fisher Scientific) was added, mixed, and incubated at 37° C. for 30 min. TG concentration was determined by reading absorbance at 535 nm (Dynex MRX^e Magellan Biosciences) and calculated from standard curve."}, "[6]": {"details": "in vivo; cited from earlier work"}, "[7]": {"details": "in vivo; cited from earlier work", "remark": "listed apart in the source"}}, "note": "“Also recorded” adds a separate entry of the source."}
{"smiles": "COc1cc(C(=O)N2CCC3(CC2)Cc2ccc(-c4cncc(C(=O)O)c4)cc2C(=O)O3)nc2c(C3CC3)cccc12", "note": "[Example 20, 5-(1′-(8-cyclopropyl-4-methoxyquinoline-2-carbonyl)-1-oxospiro[isochroman-3,4′-piperidin]-7-yl)nicotinic acid]", "values": [{"measurement": "IC50", "setting": "human ACC1", "result": 148, "unit": "nM"}, {"measurement": "Liver TG", "setting": "[1]", "result": "reduced liver triglycerides; also recorded: reduced liver TG"}, {"measurement": "IC50", "setting": "human ACC2", "result": 152, "unit": "nM"}]}
{"smiles": "COc1cc(C(=O)N2CCC3(CC2)Cc2ccc(C(C)C)cc2C(=O)O3)cc2c(OC)cccc12", "note": "[Example 1, 1′-(4,8-dimethoxy-2-naphthoyl)-7-isopropylspiro[isochroman-3,4′-piperidin]-1-one]", "values": [{"measurement": "IC50", "setting": "Human sebocytes [2]", "result": 41.5, "unit": "nM"}, {"measurement": "IC50", "setting": "Human sebocytes [3]", "result": 93.3, "unit": "nM"}, {"measurement": "IC50", "setting": "Human sebocytes [4]", "result": 10, "unit": "nM"}, {"measurement": "IC50", "setting": "[5]", "result": 3.7, "unit": "nM"}, {"measurement": "IC50", "setting": "3T3-L1 adipocytes", "result": 1.3, "unit": "nM"}]}
{"smiles": "CCCCCCCCCCCCCCOc1ccc(C(=O)OCC(=O)N(C)CC(=O)OCC)o1", "note": "[olumacostat glasaretil]", "values": [{"measurement": "Primary endpoints in phase III study", "setting": "[6]", "result": "did not meet its primary endpoints"}, {"measurement": "Phase II data", "setting": "[7]", "result": "positive"}]}
